Consider 19 substances from US20240384268A1, “Oligonucleotides” (Hudson Institute of Medical Research, priority 2021, published 2024).

In the oligonucleotide strings, read from the 5' end, every base follows the letter of its sugar. An asterisk marks phosphorothioate; unmarked linkages are phosphodiester. Other units and linkages are bracketed, terminal groups are in braces. A string of capitals states the bases alone. d = 2'-deoxy (DNA); m = 2'-O-methyl

This data set addresses T1, human TLR9 (Homo sapiens, UniProt Q9NR96).
T1 construct: HA; host or cells: 293XL-hTLR9-HA (HEK293)
T1 sequence (Q9NR96 26-1032): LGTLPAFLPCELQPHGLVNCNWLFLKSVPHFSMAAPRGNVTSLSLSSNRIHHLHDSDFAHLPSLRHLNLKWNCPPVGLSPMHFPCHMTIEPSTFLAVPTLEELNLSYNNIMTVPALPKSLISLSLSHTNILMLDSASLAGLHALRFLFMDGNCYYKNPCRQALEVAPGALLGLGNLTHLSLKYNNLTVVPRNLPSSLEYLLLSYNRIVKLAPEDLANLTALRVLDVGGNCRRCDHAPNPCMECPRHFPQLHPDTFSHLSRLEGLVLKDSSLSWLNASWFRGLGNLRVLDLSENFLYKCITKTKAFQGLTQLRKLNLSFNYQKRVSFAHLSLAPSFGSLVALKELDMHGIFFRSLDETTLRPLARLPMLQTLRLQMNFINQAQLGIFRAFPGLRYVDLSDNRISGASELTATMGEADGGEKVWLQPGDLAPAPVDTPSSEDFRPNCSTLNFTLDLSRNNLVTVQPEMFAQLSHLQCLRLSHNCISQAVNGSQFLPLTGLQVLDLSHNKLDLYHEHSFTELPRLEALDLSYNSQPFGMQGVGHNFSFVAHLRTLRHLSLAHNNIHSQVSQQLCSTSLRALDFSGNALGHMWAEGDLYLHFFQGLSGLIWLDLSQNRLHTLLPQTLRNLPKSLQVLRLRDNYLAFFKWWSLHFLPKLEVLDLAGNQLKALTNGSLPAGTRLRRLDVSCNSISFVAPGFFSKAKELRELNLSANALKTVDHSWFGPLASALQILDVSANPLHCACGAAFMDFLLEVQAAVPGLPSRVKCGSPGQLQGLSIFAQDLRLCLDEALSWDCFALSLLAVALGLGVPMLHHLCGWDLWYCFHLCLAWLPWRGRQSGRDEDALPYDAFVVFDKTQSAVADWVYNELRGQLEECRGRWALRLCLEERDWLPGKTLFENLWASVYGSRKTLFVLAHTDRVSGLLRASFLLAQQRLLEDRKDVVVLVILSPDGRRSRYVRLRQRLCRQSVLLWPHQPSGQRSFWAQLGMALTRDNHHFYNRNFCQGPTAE
In words: HEK-TLR9 NF-κB-luciferase reporter, ODN2006 stimulation. Type of data set: cell-based. Conditions: HEK-TLR9; 500 nM ASO 45 min, then 200 nM ODN2006 overnight; percentage of ODN2006 only.
Consider “mU*mA*mA*mA*mA*T*A*A*G*G*G*G*A*A*T*mA*mG*mG*mG*mG (mU*mA*mA*mA*mA*dT*dA*dA*dG*dG*dG*dG*dA*dA*dT*mA*mG*mG*mG*mG) [[CDKN2B-AS1]80]”, for which the “TLR9-500 nM: averaged NF-κB-Luciferase relative to ODN2006” value worked out at 64.58%.

On to “mU*mC*mC*mC*mA*A*C*T*C*T*T*C*T*A*A*mC*mU*mC*mG*mU (mU*mC*mC*mC*mA*dA*dC*dT*dC*dT*dT*dC*dT*dA*dA*mC*mU*mC*mG*mU; antisense) [[LINC-PINT]1284 KL]”, for which the “TLR9-500 nM: averaged NF-κB-Luciferase relative to ODN2006” value is listed as 86.73%.

With “mU*mC*mC*mC*mA*T*C*C*C*T*T*C*T*G*C*mU*mG*mA*mC*mA (UCCCATCCCTTCTGCUGACA; sugars from the 5' end m5 d10 m5, all phosphorothioate, methylation of C not given here) [[LINC-PINT]101]”, the “TLR9-500 nM: averaged NF-κB-Luciferase relative to ODN2006” value came to 59.80%.

For “mU*mC*mU*mC*mC*A*T*G*T*C*C*C*A*G*G*mC*mC*mU*mC*mC (mU*mC*mU*mC*mC*dA*dT*dG*dT*dC*dC*dC*dA*dG*dG*mC*mC*mU*mC*mC; antisense) [[CDKN2B-AS1]2230]”, the “TLR9-500 nM: averaged NF-κB-Luciferase relative to ODN2006” value is reported as 118.93%.

For “mU*mC*mU*mC*mU*C*T*G*G*T*C*C*C*A*T*mC*mC*mC*mU*mU (mU*mC*mU*mC*mU*dC*dT*dG*dG*dT*dC*dC*dC*dA*dT*mC*mC*mC*mU*mU; antisense) [[LINC-PINT]110]”, the “TLR9-500 nM: averaged NF-κB-Luciferase relative to ODN2006” value was 74.25%.

As to “mU*mC*mU*mC*mU*G*G*T*C*C*C*A*T*C*C*mC*mU*mU*mC*mU (UCUCUGGTCCCATCCCUUCU; antisense; sugars from the 5' end m5 d10 m5, all phosphorothioate, methylation of C not given here) [[LINC-PINT]108]”, the “TLR9-500 nM: averaged NF-κB-Luciferase relative to ODN2006” value stood at 100.51%.

As to “mU*mC*mU*mG*mG*T*C*C*C*A*T*C*C*C*T*mU*mC*mU*mG*mC (UCUGGTCCCATCCCTUCUGC; antisense; sugars from the 5' end m5 d10 m5, all phosphorothioate, methylation of C not given here) [[LINC-PINT]106]”, the “TLR9-500 nM: averaged NF-κB-Luciferase relative to ODN2006” value was 56.60%.

Regarding “mU*mG*mA*mC*mA*A*A*A*C*A*A*T*A*A*T*mA*mA*mC*mA*mG (mU*mG*mA*mC*mA*dA*dA*dA*dC*dA*dA*dT*dA*dA*dT*mA*mA*mC*mA*mG) [[LINC-PINT]384]”, the “TLR9-500 nM: averaged NF-κB-Luciferase relative to ODN2006” value worked out at 53.61%.

“mU*mG*mA*mC*mA*T*T*T*C*G*T*G*G*C*T*mC*mC*mU*mA*mC (mU*mG*mA*mC*mA*dT*dT*dT*dC*dG*dT*dG*dG*dC*dT*mC*mC*mU*mA*mC; antisense) [[LINC-PINT]523 KL]”: the “TLR9-500 nM: averaged NF-κB-Luciferase relative to ODN2006” value came out at 118.29%.

As for “mU*mG*mA*mU*mG*A*T*G*C*T*T*G*C*A*G*mG*mA*mG*mG*mC (mU*mG*mA*mU*mG*dA*dT*dG*dC*dT*dT*dG*dC*dA*dG*mG*mA*mG*mG*mC) [[LINC-PINT|283.1]”, the “TLR9-500 nM: averaged NF-κB-Luciferase relative to ODN2006” value was determined as 65.76%.

In the case of “mU*mG*mG*mC*mG*T*A*G*T*T*T*C*T*C*T*mU*mC*mC*mU*mC (mU*mG*mG*mC*mG*dT*dA*dG*dT*dT*dT*dC*dT*dC*dT*mU*mC*mC*mU*mC; antisense) [[LINC-PINT]937.1]”, the “TLR9-500 nM: averaged NF-κB-Luciferase relative to ODN2006” value worked out at 79.89%.

Regarding “mU*mG*mU*mG*mA*A*A*A*G*A*T*T*A*T*C*mU*mU*mC*mU*mU (UGUGAAAAGATTATCUUCUU; sugars from the 5' end m5 d10 m5, all phosphorothioate, methylation of C not given here) [[CDKN2B-AS1]2137]”, the “TLR9-500 nM: averaged NF-κB-Luciferase relative to ODN2006” value is reported as 62.16%.

With “mU*mG*mU*mU*mU*C*C*C*C*G*G*A*G*A*G*mC*mA*mA*mU*mG (UGUUUCCCCGGAGAGCAAUG; antisense; sugars from the 5' end m5 d10 m5, all phosphorothioate, methylation of C not given here) [[LINC-PINT]501 KL]”, the “TLR9-500 nM: averaged NF-κB-Luciferase relative to ODN2006” value is 71.47%.

On to “mU*mU*mA*mA*mA*T*A*A*T*C*T*A*G*T*T*mU*mG*mA*mA*mG (UUAAATAATCTAGTTUGAAG; sugars from the 5' end m5 d10 m5, all phosphorothioate, methylation of C not given here) [[CDKN2B-AS1]132]”, for which the “TLR9-500 nM: averaged NF-κB-Luciferase relative to ODN2006” value is given as 98.18%.

For “mU*mU*mA*mG*mC*T*C*C*T*T*G*C*C*T*C*mG*mU*mU*mC*mC (mU*mU*mA*mG*mC*dT*dC*dC*dT*dT*dG*dC*dC*dT*dC*mG*mU*mU*mC*mC; antisense) [[LINC-PINT] 1222]”, the “TLR9-500 nM: averaged NF-κB-Luciferase relative to ODN2006” value is reported as 78.17%.

Take “mU*mU*mC*mU*mC*T*C*T*G*G*T*C*C*C*A*mU*mC*mC*mC*mU (mU*mU*mC*mU*mC*dT*dC*dT*dG*dG*dT*dC*dC*dC*dA*mU*mC*mC*mC*mU; antisense) [[LINC-PINT]111]”: the “TLR9-500 nM: averaged NF-κB-Luciferase relative to ODN2006” value stood at 98.01%.

Consider “mU*mU*mG*mG*mC*C*T*G*T*G*G*A*T*G*C*mU*mU*mU*mG*mU (mU*mU*mG*mG*mC*dC*dT*dG*dT*dG*dG*dA*dT*dG*dC*mU*mU*mU*mG*mU) [[LINC-PINT]2673.1]”, for which the “TLR9-500 nM: averaged NF-κB-Luciferase relative to ODN2006” value is recorded as 40.71%.

As to “mU*mU*mG*mU*mG*A*A*A*A*G*A*T*T*A*T*mC*mU*mU*mC*mU (mU*mU*mG*mU*mG*dA*dA*dA*dA*dG*dA*dT*dT*dA*dT*mC*mU*mU*mC*mU) [[CDKN2B-AS1]2138]”, the “TLR9-500 nM: averaged NF-κB-Luciferase relative to ODN2006” value was found to be 61.15%.

As to “mU*mU*mU*mG*mA*A*A*T*T*C*A*G*A*A*G*mA*mU*mU*mU*mG (mU*mU*mU*mG*mA*dA*dA*dT*dT*dC*dA*dG*dA*dA*dG*mA*mU*mU*mU*mG) [[LINC PINT|2690]”, the “TLR9-500 nM: averaged NF-κB-Luciferase relative to ODN2006” value was found to be 54.33%.
